Legend:
Assay type in all cases: cell-based
C170 cells = assay: 5FU and SC101/29, crystal violet cell number after 5 days; conditions: 5 Fluorouracil 0.25 μg/ml alone
Method: 3×10^3 C170 cells were plated into microtitre plates and left overnight to adhere. 5FU was added to a final concentrations of 0.25 and 0.5 μg/ml .SC101/29 antibody was also added at concentration of 1-50 μg/ml. […] However, in combination with a non-toxic dose of 5 Fluorouracil (0.25 μg/ml) there was a 70% reduction in cell growth.

[1] = test system: C170 colorectal tumour cells; assay: Cisplatin then SC101/29, crystal violet viable cells after 4 days; parameters: dose or concentration left out as unconfirmed; conditions: cisplatin alone
Method: […] The cells were left for 4 days when the number of viable cells was determined by crystal violet staining and optical density reading at 550 nm. […] The combination of drug and antibody are synergistic, inducing a 50% reduction in cell growth.

Colorectal C170 cells = assay: Cyto Death ELISA for fragmented DNA, with or without cisplatin; conditions: cisplatin at 3 μg/ml alone
Method: The cultures were then washed once and incubated in goat anti-mouse antibody at 100 μg/ml for 30 minutes at room temperature. The cultures were then re-washed and left over night in culture medium with or without cisplatin. The following day the cultures were washed, lysed and tested for the presence of fragmented DNA by a Cyto Death ELISA (Roche). The results were recorded by optical Density measurements at 405 nm.

SMILES	toxicity of dose to C170 cells (C170 cells)	inhibition of C170 cell growth [1] [%]	apoptosis (fragmented DNA) (Colorectal C170 cells)
O=c1[nH]cc(F)c(=O)[nH]1 [5 Fluorouracil]	non-toxic		
N.N.[Cl][Pt][Cl] [cisplatin]		10	induces apoptosis
